Several values for one entry are separate records, joined by “and”; a condition that tells them apart may be missing. Equal values may be shown once.
What follows are compounds tested against T1, human kinase Mps-1 (Homo sapiens, UniProt P33981) (assay: Mps-1 kinase assay (TR-FRET)). Conditions: Mps-1 TR-FRET kinase assay; avg; read-out: Mps1 avg (IC50 [mol/l]).
T1 construct: N-terminally GST-tagged human full length recombinant Mps-1 kinase; GST (N); purchased Invitrogen, Karslruhe, Germany PV4071
T1 sequence (P33981 1-857): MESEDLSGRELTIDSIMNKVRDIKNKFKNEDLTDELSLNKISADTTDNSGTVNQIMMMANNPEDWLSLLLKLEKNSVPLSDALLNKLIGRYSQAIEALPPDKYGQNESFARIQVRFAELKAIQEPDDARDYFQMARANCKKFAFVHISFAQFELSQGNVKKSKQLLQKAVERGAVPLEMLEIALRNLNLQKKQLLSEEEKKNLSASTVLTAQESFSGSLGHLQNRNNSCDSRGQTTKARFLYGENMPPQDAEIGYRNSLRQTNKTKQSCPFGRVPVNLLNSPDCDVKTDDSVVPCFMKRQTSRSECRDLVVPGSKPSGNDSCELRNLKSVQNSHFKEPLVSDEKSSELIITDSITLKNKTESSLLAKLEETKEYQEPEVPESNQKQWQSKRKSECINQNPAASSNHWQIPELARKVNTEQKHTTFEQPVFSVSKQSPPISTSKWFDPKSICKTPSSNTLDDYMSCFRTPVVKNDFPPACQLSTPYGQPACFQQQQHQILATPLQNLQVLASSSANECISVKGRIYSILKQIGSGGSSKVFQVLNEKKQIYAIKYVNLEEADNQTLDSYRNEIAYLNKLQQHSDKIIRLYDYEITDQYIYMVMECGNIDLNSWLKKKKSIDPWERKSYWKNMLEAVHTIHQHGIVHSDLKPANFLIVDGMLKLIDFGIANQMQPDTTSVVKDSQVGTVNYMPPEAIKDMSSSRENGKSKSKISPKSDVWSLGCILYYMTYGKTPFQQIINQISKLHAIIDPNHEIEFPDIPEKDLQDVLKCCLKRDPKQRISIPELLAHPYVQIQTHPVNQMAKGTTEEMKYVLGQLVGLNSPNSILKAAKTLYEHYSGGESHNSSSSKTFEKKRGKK
Assay type: biochemical
Outline: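 GST-tagged full-length recombinant human Mps-1 (~0.5 nM) pre-incubated 15 min with compound, then reacted 60 min at 22 °C with 10 μM ATP and 1 μM biotinylated peptide in Hepes pH 7.7 buffer. EDTA-stopped; TR-FRET (Eu anti-phospho-Ser/Thr to SA-XLent) 665/620 nm ratio normalised to no-inhibitor and no-enzyme controls.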

SMILES	IC50
Cc1nsc(Nc2cncc(C(F)(F)F)n2)c1C(=O)Nc1ccc(C(=O)NCCN2CCCC(F)(F)C2)cc1 [Example 214, N-(4-{[2-(3,3-difluoropiperidin-1-yl)ethyl]carbamoyl}phenyl)-3-methyl-5-{[6-(trifluoromethyl)pyrazin-2-yl]amino}-1,2-thiazole-4-carboxamide]	> 20 µM
COC(=O)CCc1cccc(NC(=O)c2c(C)nsc2Nc2ccc(C#N)cn2)c1 [Example 176, methyl 3-{3-[({5-[(5-cyanopyridin-2-yl)amino]-3-methyl-1,2-thiazol-4-yl}carbonyl)amino]phenyl}propanoate]	> 20 µM
Cc1nsc(Nc2cnc3ccccc3n2)c1C(=O)Nc1cccc(NC(=O)OC(C)(C)C)c1 [Example 178, tert-butyl [3-({[3-methyl-5-(quinoxalin-2-ylamino)-1,2-thiazol-4-yl]carbonyl}amino)-phenyl]carbamate]	> 20 µM
Cc1nsc(Nc2cc(C#N)ccn2)c1C(=O)Nc1cccc(C(=O)NC2CC2)c1 [Example 175, 5-[(4-cyanopyridin-2-yl)amino]-N-[3-(cyclopropylcarbamoyl)phenyl]-3-methyl-1,2-thiazole-4-carboxamide]	> 20 µM
Cc1nsc(Nc2cnc3ccccc3n2)c1C(=O)Nc1ccc(Oc2cccnc2)nc1 [Example 231, 3-methyl-N-[6-(pyridin-3-yloxy)pyridin-3-yl]-5-(quinoxalin-2-ylamino)-1,2-thiazole-4-carboxamide]	> 20 µM
Cc1nsc(Nc2cncc(C(F)(F)F)n2)c1C(=O)Nc1ccc(OC2CCN(CC(F)F)CC2)c(F)c1 [Example 224, N-(4-{[1-(2,2-difluoroethyl)piperidin-4-yl]oxy}-3-fluorophenyl)-3-methyl-5-{[6-(trifluoromethyl)pyrazin-2-yl]amino}-1,2-thiazole-4-carboxamide]	> 20 µM
Cc1nsc(Nc2cc(C#N)ccn2)c1C(=O)Nc1ccc(Oc2cccc(C(F)(F)F)c2)nc1 [Example 230, 5-[(4-cyanopyridin-2-yl)amino]-3-methyl-N-{6-[3-(trifluoromethyl)phenoxy]pyridin-3-yl}-1,2-thiazole-4-carboxamide]	> 20 µM
Cc1nsc(Nc2cnc3ccccc3n2)c1C(=O)Nc1ccc(Oc2ccc(SC(F)(F)F)cc2)nc1 [Example 233, 3-methyl-5-(quinoxalin-2-ylamino)-N-(6-{4-[(trifluoromethyl)sulfanyl]phenoxy}pyridin-3-yl)-1,2-thiazole-4-carboxamide]	> 20 µM
Cc1nsc(Nc2cnc3ccccc3n2)c1C(=O)Nc1ccc(C(=O)OC(C)(C)C)cc1 [Example 181, tert-butyl 4-({[3-methyl-5-(quinoxalin-2-ylamino)-1,2-thiazol-4-yl]carbonyl}amino)benzoate]	> 20 µM
CNS(=O)(=O)c1ccc(NC(=O)c2c(C)nsc2Nc2cncc(C(F)(F)F)n2)cc1 [Example 211, 3-methyl-N-[4-(methylsulfamoyl)phenyl]-5-{[6-(trifluoromethyl)pyrazin-2-yl]amino}-1,2-thiazole-4-carboxamide]	> 20 µM and 19 µM

More lines, now with the values ahead:

IC50	SMILES
> 20 µM	Cc1nsc(Nc2cnc(C(F)(F)F)cn2)c1C(=O)Nc1ccc(OCC2CCCN(C(=O)OC(C)(C)C)C2)nc1 (stereo not shown) [Example 228, tert-butyl 3-{[(5-{[(3-methyl-5-{[5-(trifluoromethyl)pyrazin-2-yl]amino}-1,2-thiazol-4-yl)carbonyl]amino}pyridin-2-yl)oxy]methyl}piperidine-1-carboxylate]
> 20 µM	Cc1nsc(Nc2cncc(C(F)(F)F)n2)c1C(=O)Nc1ccc(C(=O)NC2CCN(C(=O)OC(C)(C)C)CC2)cc1 [Example 222, tert-butyl 4-[(4-{[(3-methyl-5-{[6-(trifluoromethyl)pyrazin-2-yl]amino}-1,2-thiazol-4-yl)carbonyl]amino}benzoyl)amino] piperidine-1-carboxylate]
> 20 µM	Cc1nsc(Nc2cc(C#N)ccn2)c1C(=O)Nc1ccc(OCCC(=O)OC(C)(C)C)nc1 [Example 200, tert-butyl 3-({5-[({5-[(4-cyanopyridin-2-yl)amino]-3-methyl-1,2-thiazol-4-yl}carbonyl)amino]pyridin-2-yl}oxy)propanoate]
> 20 µM	Cc1nsc(Nc2cncc(C(F)(F)F)n2)c1C(=O)Nc1ccc(OCCCNC(=O)OC(C)(C)C)nc1 [Example 190, tert-butyl {3-[(5-{[(3-methyl-5-{[6-(trifluoromethyl)pyrazin-2-yl]amino}-1,2-thiazoL-4-yl)carbonyl]amino}pyridin-2-yl)oxy]propyl}carbamate]
> 20 µM	Cc1nsc(Nc2cnc(C(F)(F)F)cn2)c1C(=O)Nc1ccc(OC2CCN(C(=O)OC(C)(C)C)CC2)c(F)c1 [Example 217, tert-butyl 4-(2-fluoro-4-{[(3-methyl-5-{[5-(trifluoromethyl)pyrazin-2-yl]amino}-1,2-thiazol-4-yl)carbonyl]amino}phenoxy)piperidine-1-carboxylate]
> 20 µM	Cc1nsc(Nc2cnc3ccccc3n2)c1C(=O)Nc1ccc(NCCNC(=O)OC(C)(C)C)nc1 [Example 244, tert-butyl (2-{[5-({[3-methyl-5-(quinoxalin-2-ylamino)-1,2-thiazol-4-yl]carbonyl}amino)pyridin-2-yl]amino}ethyl)carbamate]
> 20 µM	Cc1nsc(Nc2cnc(C(F)(F)F)cn2)c1C(=O)Nc1ccc(F)c(OC2CCN(C(=O)OC(C)(C)C)CC2)c1 [Example 229, tert-butyl 4-(2-fluoro-5-{[(3-methyl-5-{[5-(trifluoromethyl)pyrazin-2-yl]amino}-1,2-thiazol-4-yl)carbonyl]amino}phenoxy)piperidine-1-carboxylate]
> 20 µM	Cc1nsc(Nc2cncc(C(F)(F)F)n2)c1C(=O)Nc1ccc(OCCCN)nc1 [Example 209, N-[6-(3-aminopropoxy)pyridin-3-yl]-3-methyl-5-{[6-(trifluoromethyl)pyrazin-2-yl]amino}-1,2-thiazole-4-carboxamide]
4.6 µM	Cc1nsc(Nc2cnc3ccccc3n2)c1C(=O)Nc1ccc(OCCC(=O)OC(C)(C)C)nc1 [Example 198, tert-butyl 3-{[5-({[3-methyl-5-(quinoxalin-2-ylamino)-1,2-thiazol-4-yl]carbonyl}amino)pyridin-2-yl]oxy}propanoate]
> 20 µM	Cc1nsc(Nc2cnc(C(F)(F)F)cn2)c1C(=O)Nc1ccc(OCCNC(=O)OC(C)(C)C)c(F)c1 [Example 215, tert-butyl [2-(2-fluoro-4-{[(3-methyl-5-{[5-(trifluoromethyl)pyrazin-2-yl]amino}-1,2-thiazol-4-yl)carbonyl]amino}phenoxy)ethyl]carbamate]
≥ 20 µM	Cc1nsc(Nc2cnc3ccccc3n2)c1C(=O)Nc1ccc(OC2CCN(C(=O)OC(C)(C)C)CC2)nc1 [Example 18, tert-Butyl 4-{[5-({[3-methyl-5-(quinoxalin-2-ylamino)-1,2-thiazol-4-yl]carbonyl}-amino)pyridin-2-yl]oxy}piperidine-1-carboxylate]
> 20 µM	Cc1nsc(Nc2cnc(C(F)(F)F)cn2)c1C(=O)Nc1ccc(OC2CCN(C)CC2)nc1 [Example 220, 3-methyl-N-{6-[(1-methylpiperidin-4-yl)oxy]pyridin-3-yl}-5-{[5-(trifluoromethyl)pyrazin-2-yl]amino}-1,2-thiazole-4-carboxamide]
